In patent publication US20090202573A1, “POLYMERIC CONJUGATES CONTAINING POSITIVELY-CHARGED MOIETIES” (ENZON PHARMACEUTICALS, INC., priority 2006, published 2009):
d = 2'-deoxy (DNA); r = 2'-OH (RNA)

Tests used:
Survivin mRNA [1] = test: Survivin mRNA downregulation in A549 cell model, RT-PCR (Examples 67, 69, 70, 71, 71 bis); assay type: cell-based, human
Description: This study was conducted to determine the effects of the positively charged polymers on Survivin mRNA expression. A549 human lung cells were transfected with each of compounds 33b-I-R4, 33b-I-R5 and 33a-I-R3 in concentrations of 1000 nM, 200 nM, 40 nM, 8 nM and 1.6 nM. […] Compound 33a-I-R3 ([RGD-TATC-S—S]7-^20K8arm PEG-SS-antisense Survivin LNA) includes the TAT peptide and antisense Survivin LNA. The Survivin mRNA expression in the A549 cells treated with each of the compounds was measured by RT-PCR one day after the treatment.
A549 human lung cancer cells were transfected with each of compound 33a-I-R2 and the naive antisense Survivin LNA. Compound 33a-I-R2 ([(Arg)9C—S—S]7-^20K8arm PEG-S—S-antisense Survivin LNA) includes seven polymer arm terminals connected to C(Arg)9 and one arm terminal connected to the antisense Survivin LNA via the intracellular releasable disulfide bond. The naive oligonucleotides (antisense Survivin LNA) were also transfected with the transfection agent lipofectamine.
A549 cells were transfected with each of compound 59 and the antisense Survivin LNA dimer. The dimer of the antisense Survivin LNA modified with a C6—SH tail (antisense Survivin LNA-C6—S—S—C6-antisense Survivin LNA) was also transfected with the transfection agent. Compound 59 contains a hydrazone-based releasable linker.
This study was conducted to determine whether the positively charged polymers containing a targeting agent is as effective as the positively charged polymers without a targeting agent and thus the polymers containing the targeting agent can be utilized for targeted delivery. A549 cells were transfected with each of compounds 33a-I-R1 (TATC-S—S)7-^20K8arm PEG-S—S-antisense Survivin LNA) and 33a-I-R3 ([RGD-TATC-S—S]7-^20K8arm PEG-S—S-antisense Survivin LNA). In compounds 33a-I-R1 and 33a-I-R3, seven polymer arm terminals are connected to C-TAT and C-TAT-RGD, respectively. The cells were also transfected with the antisense Survivin LNA modified with a SH—C6 tail with or without the transfection agent. […] This feature of the positively charged polymers is beneficial to target agent directed delivery of oligonucleotide therapeutics.
A549 human lung cancer cells were transfected with each of compound 33a-I-R1 (TATC-S—S)7-^20K8arm PEG-S—S-antisense Survivin LNA), compound 33a-II-R1 (TATC-S—S)7-^20K8arm PEG-S—S-scrambled Survivin LNA) and the native antisense Survivin LNA. Compound […] corresponds to compound […] except in that it includes mismatching nucleotides within the antisense Survivin LNA (scrambled Survivin LNA: 5′-s^mCsGs^mCsAsgsaststsasgsasasAs^mCs^mCst-3′). The naive antisense Survivin LNA was also transfected with the transfection agent.

Survivin mRNA [2] = test: Survivin mRNA downregulation in DU145 cell model (prostate cancer) (Example 68); assay type: cell-based; details: Example 68: DU145 cells, FIG. 19
Source text: DU145 cells were transfected with the same compounds used in Example 67.

BCL2 mRNA = BCL2 mRNA downregulation, RT-PCR, A431 cells (Example 66); assay type: cell-based, human; details: without transfection agent, FIG. 17
Description: This study was conducted to determine whether the oligonucleotides uptaken by cancer cells downregulate specific gene expression involved in cancer. A431 cells were transfected with native oligonucleotides and compound 23a-I-R1 without transfection agent. The positively charged polymer conjugate contains TAT and BCL2 siRNA.

[3] = Example 71: A549 cells, polymers with or without targeting agent (RGD), FIG. 22

(TATC-S—S)7-^20K8arm PEG-S—S-antisense Survivin LNA [Compound 33a-I-R1]
Survivin mRNA expression (Survivin mRNA [1]; [3]): downregulated Survivin mRNA expression
Specific inhibition of Survivin mRNA expression (Survivin mRNA [1]; second Example 71: A549 cells, antisense versus scrambled (mismatching) Survivin LNA, FIG. 23): significantly inhibited Survivin mRNA expression
Survivin mRNA expression (Survivin mRNA [2]): similarly observed

[(Arg)9C—S—S]7-^20K8arm PEG-S—S-antisense Survivin LNA [Compound 33a-I-R2]
Survivin mRNA expression (Survivin mRNA [1]; Example 69: A549 cells, without the transfection agent, FIG. 20): significantly downregulated Survivin mRNA expression

[RGD-TATC-S—S]7-^20K8arm PEG-SS-antisense Survivin LNA [Compound 33a-I-R3]
Survivin mRNA expression (Survivin mRNA [1]; Example 67: A549 cells, 1000 nM to 1.6 nM, RT-PCR one day after treatment, without transfection agent, FIG. 18): significantly downregulated Survivin mRNA expression
dose dependence of Survivin mRNA downregulation (Survivin mRNA [1]; Example 67: A549 cells, 1000, 200, 40, 8 and 1.6 nM, FIG. 18): dose-dependent
Survivin mRNA expression (Survivin mRNA [1]; [3]): downregulated Survivin mRNA expression
Survivin mRNA expression (Survivin mRNA [2]): significant down-regulation of Survivin mRNA expression

native Bcl2 siRNA: unconjugated antisense Bcl2 siRNA (SEQ ID NOs: 4 and 5) (chain 1 GCAUGCGGCCUCUGUUUGATT; chain 2 UCAAACAGAGGCCGCAUGCTT; sugars from the 5' end r19 d2, backbone not given here)
BCL2 mRNA expression (BCL2 mRNA): downregulated BCL2 mRNA expression dose-dependently
